The values below are quoted from earlier work in the CATMoS acute toxicity set (Mansouri et al. 2021).

Where “and” joins values, the source holds several entries; their conditions need not be identical. Equal entries are not always repeated.

The series can be described thus: rat acute oral toxicity. Conditions: in vivo.
For the compound `CC=CC(C)C1(CC)C(=O)NC(=O)NC1=O` (centres undefined), the LD50 (commonly the dose expected to kill half of the subjects tested) is 20 mg/kg.

With `N=C(N)NCCC[C@H](N)C(=O)O`, the LD50 was 12000 mg/kg.

With `Cn1c(=O)on(-c2ccc(Cl)c(Cl)c2)c1=O`, the LD50 was 777 mg/kg. As for `CC1(C)CO1`, the LD50 was 3890 mg/kg. Consider `Cc1cc(S(=O)(=O)O)c(N)cc1Cl`, for which the LD50 was 12300 mg/kg.

Consider `CCCn1c(=O)[nH]c(=O)c2[nH]cnc21`, for which the LD50 was 481 mg/kg.

`CC(c1ccccc1)c1ccc(O)cc1O` (centres undefined): the LD50 was 500 mg/kg. `CSC`: the LD50 is 3300 mg/kg.

Consider `CCOP(=O)(OCC)Oc1ccc2ccc(=O)oc2c1`, for which the LD50 is 29 mg/kg. For the compound `C=CCOc1ccccc1C(=O)NCCO`, the LD50 was 1150 mg/kg. Consider `O=C(NCCO[N+](=O)[O-])c1cccnc1`, for which the LD50 is 1220 mg/kg. With `CC(C)Cc1ccc2ccccc2n1`, the LD50 was 1020 mg/kg.

As to `COCN(C)N=O`, the LD50 was 700 mg/kg. Take `CN(C)N=Nc1ccc(I)cc1`: the LD50 was 574 mg/kg. For `C[N+]1(CC2COC(c3ccccc3)(C3CCCCC3)O2)CCCCC1` (centres undefined), the LD50 was 494 mg/kg. Regarding `CC1CC=NN1C(=N)N=C(N)N` (centres undefined), the LD50 is 4350 mg/kg.

Consider `FC(F)C(F)(F)OCC(Cn1cncn1)c1ccc(Cl)cc1Cl` (centres undefined), for which the LD50 is 1030 mg/kg.

As for `CCC[N+](=O)[O-]`, the LD50 was 455 mg/kg. Consider `C=C(C)c1ccccc1`, for which the LD50 is 4900 mg/kg.

For the compound `CC(C)OP(=S)(OC(C)C)SCSC(C)C`, the LD50 was 5 mg/kg. For the compound `CCOC(C1=NCC(C)(C)N1)c1ccc(Cl)c(Cl)c1` (centres undefined), the LD50 was 110 mg/kg. For `CN(C)CCCN1C(=O)c2cc([N+](=O)[O-])ccc2Oc2ccccc21`, the LD50 is 1690 mg/kg. Consider `Nc1ncnc2c1ccn2C1OC(CO)C(O)C1O` (centres undefined), for which the LD50 is 16 mg/kg.

With `N/C(CNc1ccc(Cl)cc1)=N/O`, the LD50 was 450 mg/kg. With `Nc1ccc(I)cc1`, the LD50 was 523 mg/kg.

On to `Cc1cc(Cl)cc2sc(-c3sc4cc(Cl)cc(C)c4c3OS(=O)(=O)O)c(OS(=O)(=O)O)c12`, for which the LD50 was 4360 mg/kg. In the case of `CCCN1CCCC1=Nc1ccc(Cl)c(Cl)c1`, the LD50 was 2120 mg/kg.

In the case of `Clc1c(Cl)c(Cl)c2c(c1Cl)Oc1c(Cl)c(Cl)c(Cl)c(Cl)c1O2`, the LD50 is 1 mg/kg.

As for `C1CS1`, the LD50 is 178 mg/kg. In the case of `CSC#N`, the LD50 was 60 mg/kg. With `CC(C)CNC(=O)N1CCNC1=O`, the LD50 was 3500 mg/kg. For `CC(c1ccccc1)c1ccccc1CCl` (centres undefined), the LD50 is 4700 mg/kg. In the case of `CN1CCCCC1C(c1ccccc1)c1cccc(O)c1` (centres undefined), the LD50 was 1 mg/kg. In the case of `CCCOC(=O)CC(SP(=O)(OC)OC)C(=O)OCCC` (centres undefined), the LD50 was 360 mg/kg. `O=C(OCC1CO1)c1ccccc1C(=O)OCC1CO1` (centres undefined): the LD50 is 1240 mg/kg. As for `Nc1cc(S(=O)(=O)O)cc2c1C(=O)C(=NNc1ccc(NN=C3C(=O)c4c(O)cc(S(=O)(=O)O)cc4C=C3S(=O)(=O)O)cc1)C(S(=O)(=O)O)=C2`, the LD50 was 12000 mg/kg. Regarding `CN(C)N=Nc1ccccc1`, the LD50 was 310 mg/kg. With `Clc1cccc(Cl)c1Nc1ncccn1`, the LD50 is 4720 mg/kg.

Consider `CCCCOC(=O)COc1cc(Cl)c(Cl)cc1Cl`, for which the LD50 was 481 mg/kg. With `NC(=O)CCCCC1CCSS1` (centres undefined), the LD50 is 1980 mg/kg.

As for `CCCCNC(=O)OCC(C)(CCC)COC(N)=O` (centres undefined), the LD50 is 1040 mg/kg. Regarding `ClCCN1CCCC(C(c2ccccc2)c2ccccc2)C1` (centres undefined), the LD50 was 970 mg/kg.

Consider `CCCC(C)OP(=S)(OC)OC` (centres undefined), for which the LD50 is 311 mg/kg. Take `CCN(CC)C(C)C(=O)c1ccc(NS(C)(=O)=O)cc1` (centres undefined): the LD50 was 2350 mg/kg.

`CCOc1ccc(C=O)cc1`: the LD50 was 2100 mg/kg.

Regarding `O=P(O)(O)Oc1ccccc1`, the LD50 was 2290 mg/kg.

As for `CC(C)c1ccnc2ccccc12`, the LD50 is 940 mg/kg. As to `CC(=O)NNC(=O)c1ccccn1`, the LD50 is 673 mg/kg. On to `Cc1nccnc1C`, for which the LD50 is 613 mg/kg. `COc1c(OC)c(Cl)c2[nH]c(C(F)(F)F)nc2c1Cl`: the 50% lethal dose (LD50) was 100 mg/kg. In the case of `Nc1ccc(-c2ccc(-n3nc4ccc5c(S(=O)(=O)O)cc(S(=O)(=O)O)cc5c4n3)cc2)cc1`, the LD50 was 7210 mg/kg. As to `O=C(CS)OCCOC(=O)CS`, the LD50 was 330 mg/kg. With `O=CNc1ccc(Cl)cc1`, the 50% lethal dose (LD50) is 750 mg/kg. Take `CCCOC(C(=O)OC1CCN(C)CC1)(c1ccccc1)c1ccccc1`: the LD50 is 2250 mg/kg. For `CCCCNC1CCCCC1`, the 50% lethal dose (LD50) is 330 mg/kg. Consider `Nc1c(Cl)cc(Cl)cc1Cl`, for which the LD50 was 2400 mg/kg. As for `COC=CC=C(C#N)C#N`, the LD50 is 200 mg/kg.

Consider `CC(C)=CCCC(C)CC=O` (centres undefined), for which the LD50 was 2420 mg/kg and 7200 mg/kg. For `CCOP(=S)(OCC)Oc1ccc(SC)c(C)c1`, the LD50 is 14 mg/kg.
